Laboratory results published in patent US20070166187A1, “Stabilization of paricalcitol using chlorobutyl or chlorinated butyl stoppers” (priority 2006, published 2007).

Columns and labels:
[1] = accelerated stability model: paricalcitol solution in stoppered vials or ampule, inverted, 80° C., 21 days, HPLC; type: physicochemical
Procedure: In order to effectively evaluate different container closures, an accelerated stability model was devised, wherein vials that contained a paricalcitol solution and were sealed with 27 different types of stoppers were stored inverted and protected from light at 80° C. for 21 days. The vials were different only in the composition of the stoppers which were obtained from commercially available sources. Throughout the 21 day trial, samples were removed at day 2, 7, 14 and 21, and the contents of the vial were analyzed by HPLC (High Pressure Liquid Chromatography) to determine the concentration of the test compound paricalcitol compared to a control sample of known concentration. The control sample consisted of a paricalcitol injection solution stored in a sealed glass ampule which maintained 100% potency for the entirety of the test (21 days). The relative concentration of the paricalcitol in the vials stored with test stoppers compared to the control sample was measured indicating stability of the paricalcitol over the 21 day test. In addition, the accelerated shelf-life study conditions were conducted on an identical vial wherein the headspace of the vials was blanketed with argon gas above the paricalcitol solutions prior to sealing with the appropriate stopper. The argon blanketed sample containing a lower concentration of oxygen was compared to the control sample to determine the stability of the test compound in a more inert atmosphere. The 80° C. 21 day rapid screening method of solutions of paricalcitol in the presence of different stoppers was designed to predict the stability of the test compound (i.e., paricalcitol) relative to the containers that are used in the current marketed product. The paricalcitol solution preparation: (5 mcg/mL in water-propylene glycol-ethanol/50:30:20; as defined under USP28-NF23 Page 1471 guidelines) contains not less than 90.0 percent and not more than 110.0 percent of the labeled amount of paricalcitol (C27H44O3). 1 mL of solution was added to a 5 mL or 10 mL (for 20 mm stopper) Type 1 glass vial. The vials were sealed with the various types of stoppers. In order to evaluate the effect of oxygen, a second series of identical vials was blanketed with argon prior to capping with the stoppers. All of the samples were stored inverted in a light-protected, 80° C. oven to obtain maximum contact between solution and the stopper. Ampule samples (with no headspace argon gassing) were prepared and stored along with vials under the same condition to serve as a control. At least 2 samples for each type of stopper were pulled out at 2, 7, 14, and 21 day time points and assayed using HPLC without further dilution. Paricalcitol concentration profiles from the vials containing different composition stoppers were compared to the same solution packaged in ampules. The relative concentration of remaining paricalcitol was plotted over the course of the 21 day test to determine the relative stability of paricalcitol in the presence of the test stopper. Chromatographic system used: The liquid chromatograph was equipped with a 252-nm detector and a 4.6-mm×25-cm column that contains 5-μm packing L1 with a flow rate about 2 mL per minute. […] Separately inject equal volumes (about 100 to 200 μL) of the Standard preparation and the Assay preparation into the chromatograph, record the chromatograms, and measure the responses for the major peaks. Calculate the quantity, in μg, of paricalcitol (C27H44O3) in each mL of the Injection taken by the formula: C(rU/rS), in which C is the concentration, in μg per mL, of paricalcitol in the control standard, calculated on the basis of the content of paricalcitol in the USP Paricalcitol Solution RS; and rU and rS are the paricalcitol peak responses obtained from the test samples and the control standard, respectively. Results Five stability studies were conducted to evaluate the stoppers. […]

[2] = formulation study of the effect of BHT on paricalcitol stability, 35 day 80° C. degradation model; type: physicochemical; settings: no BHT, ampule and vial with 4432/50/Flu/B2-40 stopper, 35 days
Procedure: BHT is an antioxidant and is often used to protect chemicals and materials from oxidative degradation and is present in several of the stoppers. Levels of BHT were identified in the test samples during the 21 day, 80° C. storage and during a separate 25, 30, and 40° C. stability studies conducted over a 9-month interval. […] To determine, whether or not BHT would enhance the stability or cause degradation of the paricalcitol solution, a formulation study was conducted to evaluate the effect of BHT on the stability of paricalcitol in the Zemplar® formulation with the current stopper using a 35 day 80° C. degradation model. In this study, different amounts of BHT were added to the Zemplar® formulation with concentrations of 0.05, 0.1, 0.5, and 1.0 mcg/mL. The controls consisted of the Zemplar formulation without BHT contained in ampules and vials sealed with either […]-1/FT/B2-40 or the 4432/50/Flu/B2-40 stoppers. […] Therefore, causes not fully understood led to the enhanced stabilization of the paricalcitol solution contained in samples with 4432/50/Flu/B2-40 stoppers.

[3] = commercially available injection vial containing a solution of paricalcitol; cited from earlier work

- stability with argon headspace gassing ([1]; Study 1, argon headspace, chlorobutyl stoppers versus other stoppers): more stable
- degradation over the 21 day test period ([1]; Study 1, without argon headspace, Stopper #8 (Ashland chlorobutyl, Tefzel) and Stopper #7 (Ashland chlorobutyl, uncoated) versus stoppers #3, 10, 12, 13): least degradation
- paricalcitol concentration ([1]; Study 2, West chlorobutyl and Daikyo chlorinated butyl stoppers, 21 days at 80° C.): remained unchanged
- concentration of paricalcitol at the 21 day interval ([1]; Study 2, argon headspace, butyl, bromobutyl and POE stoppers compared to chlorobutyl and chlorinated butyl stoppers): still lowest
- stability profile ([1]; Study 3, without argon, Ashland 5212 chlorobutyl stoppers with Plasma and Prop coatings): constant stability profiles
- performance relative to ampule ([1]; Study 4, West 4432/50 stopper without any barrier coating): performed as well as the ampule sample
- time point at which potency drop starts ([1]; vial with D777-1/FT/B2-40 stopper (marketed stopper), 80° C.): 7 days
- rate of decomposition over the 21 days ([1]; vials sealed with chlorobutyl or chlorinated butyl stoppers, 80° C.): slowest rate of decomposition
- paricalcitol concentration [2]: remained constant
SMILES: C[C@H](/C=C/[C@H](C)C(C)(C)O)[C@H]1CC[C@H]2/C(=C/C=C3C[C@@H](O)C[C@H](O)C3)CCC[C@]12C [paricalcitol]
- concentration of paricalcitol within the vial ([1]; Study 1, without argon headspace, Stopper #8 (Ashland chlorobutyl, Tefzel)): comparable to the sample stored in the ampule
- concentration of paricalcitol throughout the 21 day test ([1]; Study 4, stoppers consisting of chlorobutyl material): consistently maintained the highest concentration
- current shelf-life [3]: 1 year
